3 compounds from US20180305345A1 (priority 2015, published 2018) can be followed below.

One assay deals with VSVΔ51 in 786-0 cells. It is filed as cell-based, human.
The test system of assay [1] is VSVΔ51-resistant HT29 cells (human colon carcinoma). The arrangement: species or system Balb/c mice. The following applies: in vivo.

Consider `O=C1OC(c2ccccc2)C(Cl)=C1Cl` (stereo not shown) [Compound 1, 3,4-dichloro-5-phenyl-2,5-dihydrofuran-2-one, reference compound], for which, in the assay with VSVΔ51 in 786-0 cells, the “effect on viral growth after removal of compound at various times” value is “rapid and sustained”.

Turning to `O=C1C(Cl)=C(Cl)C(O)N1CCN1CCOCC1` (stereo not shown) [Compound 28, 3,4-dichloro-5-hydroxy-1-(2-morpholinoethyl)-1H-pyrrol-2(5H)-one], in assay [1], the mouse survival entry is recorded as “increased mouse survival rates”. Further, the tumor growth entry in assay [1] (mouse) was “reduced tumor growth”.

With `O=C1C(Cl)=C(Cl)C(O)N1Cc1ccccc1` (stereo not drawn) [Compound 10, α,β-dichloro-γ-hydroxy-N-benzyl-crotonic lactam], in the assay on VSVΔ51 in 786-0 cells, the “effect on viral growth after removal of compound at various times” value was “rapid and sustained”.
